Measured values taken from patent publication US20220125051A1, “PRE-HARVEST DESICCATION METHOD” (SYNGENTA CROP PROTECTION AG, priority 2019, published 2022).
Values joined by “and” are separate entries in the source; they are usually repeats but may differ in a detail not shown here. Identical values can stand only once. Like-named read-outs stand apart in the source and are kept apart here.

Assays:
Assay type in all cases: in vivo
Setaria faberi (SETFA) [1] = assay: Post-emergence efficacy, Method A; conditions: Application rate 500 g/Ha; evaluated after 13 days; 100=total damage to plant, 0=no damage to plant
Procedure, shortened: (§1)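 Visual damage score, 0 (no damage) to 100 (total), taken 13 d after spraying. Pot-grown plants at 14 d post-sowing received an aqueous spray from a 50 g/l acetone/IF50 solution diluted in 0.25% or 1% Empicol ESC70 + 1% ammonium sulphate; glasshouse 24/16 °C, 14 h light, 65% RH, watered twice daily.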

[2] = system: Digitaria sanguinalis (DIGSA); assay: Post-emergence efficacy, Method A; conditions: Application rate 500 g/Ha; evaluated after 13 days; 100=total damage to plant, 0=no damage to plant
Procedure, shortened: as §1

[3] = system: Echinochloa crus-galli (ECHCG); assay: Post-emergence efficacy, Method A; conditions: Application rate 500 g/Ha; evaluated after 13 days; 100=total damage to plant, 0=no damage to plant
Procedure, shortened: as §1

Lolium perenne (LOLPE) [4] = assay: Post-emergence efficacy, Method A; conditions: Application rate 500 g/Ha; evaluated after 13 days; 100=total damage to plant, 0=no damage to plant
Procedure, shortened: as §1

[5] = system: Euphorbia heterophylla (EPHHL); assay: Post-emergence efficacy, Method A; conditions: Application rate 500 g/Ha; evaluated after 13 days; 100=total damage to plant, 0=no damage to plant
Procedure, shortened: as §1

Eleusine indica (ELEIN) [6] = assay: Post-emergence efficacy, Method A; conditions: Application rate 500 g/Ha; evaluated after 13 days; 100=total damage to plant, 0=no damage to plant
Procedure, shortened: as §1

Brassica napus (BRSNN) = assay: Pre-harvest desiccation of crop plants; conditions: Table E, evaluated after 7 and 14 days (which not stated), 100=total damage to plant, 0=no damage
Experimental: (§2) Seeds of a variety of test species were sown in standard loam based soil in pots. After cultivation from between 21 and 28 days (post-emergence) under controlled conditions in a glasshouse (at 24/16° C., day/night; 14 hours light; 65% humidity) for warm climate species and (at 20/16° C. day/night; 15 hours light; 65% humidity) for cool climate species.
(§3) The plants were sprayed with an aqueous spray solution derived from dissolving the technical active ingredient formula in a small amount of acetone and a special solvent and emulsifier mixture referred to as IF50 (11.12% Emulsogen EL360 TM+44.44% N-methylpyrrolidone+44.44% Dowanol DPM glycol ether), to create a 50 g/I solution which was then diluted to required concentration using a solution of 1% Empicol ESC70 (Sodium lauryl ether sulphate)+1% ammonium sulphate in water as diluent.
(§4) The delivery of the aqueous spray solution was via a laboratory track sprayer which delivered the aqueous spray composition at a rate of 200 litres per hectare, using a flat fan nozzle (Teejet 11002VS) and an application volume of 200 litre/ha (at 2 bar).
(§5) The test plants were then grown in a glasshouse under controlled conditions (at 24/16° C., day/night; 14 hours light; 65% humidity) for warm climate species and (at 20/16° C. day/night; 15 hours light; 65% humidity) for cool climate species and watered twice daily. After 7 and 14 days the test was evaluated (100=total damage to plant; 0=no damage to plant).
(§6) A value of n/t indicates not tested.
(§7) Glycine Max (GLXMA), Solanum turberosum (SOLTU), Gossypium hirsutum (GOSHI), Brassica napus (BRSNN), Helianthus annus (HELAN)

Glycine Max (GLXMA) = assay: Pre-harvest desiccation of crop plants; conditions: Table E, evaluated after 7 and 14 days (which not stated), 100=total damage to plant, 0=no damage
Experimental: as §2, §3, §4, §5, §6, §7

[7] = system: Solanum turberosum (SOLTU); assay: Pre-harvest desiccation of crop plants; conditions: Table E, evaluated after 7 and 14 days (which not stated), 100=total damage to plant, 0=no damage
Experimental: as §2, §3, §4, §5, §6, §7

[8] = system: Gossypium hirsutum (GOSHI); assay: Pre-harvest desiccation of crop plants; conditions: Table E, evaluated after 7 and 14 days (which not stated), 100=total damage to plant, 0=no damage
Experimental: as §2, §3, §4, §5, §6, §7

Setaria faberi (SETFA) [9] = assay: Post-emergence efficacy, Method B; conditions: read-out: Control of weed species after post-emergence application, SETFA
Experimental: (§8) An “instant formulation”, known as the IF50, containing 50 g/L of the “technical” (i.e. unformulated) active ingredient was prepared by dissolving the active ingredient in a mixture of organic solvents and emulsifier, details of which are provided in the table. This IF50 was then mixed with a small, variable amount of acetone to aid dissolution, before addition of an aqueous solution of 1% v/v ammonium sulphate+1% v/v Empicol ESC70 (Sodium lauryl ether sulphate) adjuvant, as the aqueous diluent, to form an aqueous spray solution which contains a predetermined concentration of the active ingredient (which varies depending on the application rate of the active ingredient to the plants).
(§9) This aqueous spray solution was then sprayed onto the plants, after about 12 days' cultivation. The plants were grown from seeds sown in standard soil, placed in a glasshouse under controlled conditions (at 24/18° C. or 20/16° C., day/night; 16 hours light; 65% humidity). After spray application the plants were then grown on in a glasshouse under the same conditions and watered twice daily. […] the test was evaluated (100=total damage to plant; 0=no damage to plant).
(§10) Ipomoea hederacea (IPOHE), Euphorbia heterophylla (EPHHL), Chenopodium album (CHEAL), Amaranthus retroflexus (AMARE), Lolium perenne (LOLPE), Digitaria sanguinalis (DIGSA), Eleusine indica (ELEIN), Echinochloa crus-galli (ECHCG), Setaria faberi (SETFA)

[10] = system: Digitaria sanguinalis (DIGSA); assay: Post-emergence efficacy, Method B; conditions: read-out: Control of weed species after post-emergence application, DIGSA
Experimental: as §8, §9, §10

[11] = system: Echinochloa crus-galli (ECHCG); assay: Post-emergence efficacy, Method B; conditions: read-out: Control of weed species after post-emergence application, ECHCG
Experimental: as §8, §9, §10

[12] = system: Ipomoea hederacea (IPOHE); assay: Post-emergence efficacy, Method B; conditions: read-out: Control of weed species after post-emergence application, IPOHE
Experimental: as §8, §9, §10

[13] = system: Chenopodium album (CHEAL); assay: Post-emergence efficacy, Method B; conditions: read-out: Control of weed species after post-emergence application, CHEAL
Experimental: as §8, §9, §10

Lolium perenne (LOLPE) [14] = assay: Post-emergence efficacy, Method B; conditions: read-out: Control of weed species after post-emergence application, LOLPE
Experimental: as §8, §9, §10

[15] = system: Amaranthus retroflexus (AMARE); assay: Post-emergence efficacy, Method B; conditions: read-out: Control of weed species after post-emergence application, AMARE
Experimental: as §8, §9, §10

[16] = system: Euphorbia heterophylla (EPHHL); assay: Post-emergence efficacy, Method B; conditions: read-out: Control of weed species after post-emergence application, EPHHL
Experimental: as §8, §9, §10

Eleusine indica (ELEIN) [17] = assay: Post-emergence efficacy, Method B; conditions: read-out: Control of weed species after post-emergence application, ELEIN
Experimental: as §8, §9, §10

[18] = Method B, 1000 g/Ha, 100=total damage to plant, 0=no damage

O=C(O)CC[n+]1ccc(-c2ncccn2)cn1.[Cl-] [Compound A26, 3-(4-pyrimidin-2-ylpyridazin-1-ium-1-yl)propanoic acid chloride]
Control of weed species after post-emergence application, SETFA (Setaria faberi (SETFA) [1]): 100
Control of weed species after post-emergence application, DIGSA [2]: 100
Control of weed species after post-emergence application, ECHCG [3]: 100
Control of weed species after post-emergence application, LOLPE (Lolium perenne (LOLPE) [4]): 90
Control of weed species after post-emergence application, EPHHL [5]: 100
Control of weed species after post-emergence application, ELEIN (Eleusine indica (ELEIN) [6]): 100
Post-emergence dessication efficacy, BRSNN (Brassica napus (BRSNN); 150 g/Ha): 65
Post-emergence dessication efficacy, BRSNN (Brassica napus (BRSNN); 300 g/Ha): 97
Post-emergence dessication efficacy, BRSNN (Brassica napus (BRSNN); 600 g/Ha): 99
Post-emergence dessication efficacy, GLXMA (Glycine Max (GLXMA); 150 g/Ha): 96
Post-emergence dessication efficacy, GLXMA (Glycine Max (GLXMA); 300 g/Ha): 93
Post-emergence dessication efficacy, GLXMA (Glycine Max (GLXMA); 600 g/Ha): 99
Post-emergence dessication efficacy, SOLTU ([7]; 150 g/Ha): 62
Post-emergence dessication efficacy, SOLTU ([7]; 300 g/Ha): 95
Post-emergence dessication efficacy, SOLTU ([7]; 600 g/Ha): 73
Post-emergence dessication efficacy, GOSHI ([8]; 150 g/Ha): 100
Post-emergence dessication efficacy, GOSHI ([8]; 300 g/Ha): 100
Post-emergence dessication efficacy, GOSHI ([8]; 600 g/Ha): 100

N#C[N-]C(=O)CC[n+]1ccc(-c2ncccn2)cn1 [Compound A226]
pest or weed control at 1000 g/ha (Setaria faberi (SETFA) [9]; [18]): 70%
pest or weed control at 1000 g/ha [10, 18]: 100%
pest or weed control at 1000 g/ha [11, 18]: 100%
pest or weed control at 1000 g/ha [12, 18]: 100%
pest or weed control at 1000 g/ha [13, 18]: 100%
pest or weed control at 1000 g/ha (Lolium perenne (LOLPE) [14]; [18]): 70%
pest or weed control at 1000 g/ha [15, 18]: 100%

Cl.O=C(O)CC[n+]1ccc(-c2cccnn2)cn1.[Cl-] [Compound A234, 3-(4-pyridazin-1-ium-3-ylpyridazin-1-ium-1-yl)propanoic acid dichloride]
Post-emergence dessication efficacy, BRSNN (Brassica napus (BRSNN); 75 g/Ha): 77
Post-emergence dessication efficacy, BRSNN (Brassica napus (BRSNN); 150 g/Ha): 99
Post-emergence dessication efficacy, BRSNN (Brassica napus (BRSNN); 300 g/Ha): 100
Post-emergence dessication efficacy, BRSNN (Brassica napus (BRSNN); 600 g/Ha): 100
Post-emergence dessication efficacy, GLXMA (Glycine Max (GLXMA); 75 g/Ha): 25
Post-emergence dessication efficacy, GLXMA (Glycine Max (GLXMA); 150 g/Ha): 97 and 52
Post-emergence dessication efficacy, GLXMA (Glycine Max (GLXMA); 300 g/Ha): 97 and 67
Post-emergence dessication efficacy, GLXMA (Glycine Max (GLXMA); 600 g/Ha): 97 and 63
Post-emergence dessication efficacy, SOLTU ([7]; 75 g/Ha): 7
Post-emergence dessication efficacy, GOSHI ([8]; 75 g/Ha): 33
Post-emergence dessication efficacy, GOSHI ([8]; 600 g/Ha): 100 and 50

O=S(=O)([O-])CC[n+]1ccc(-c2cccnn2)cn1 [Compound A213, 2-(4-pyridazin-1-ium-3-ylpyridazin-1-ium-1-yl)ethanesulfonate chloride]
pest or weed control at 1000 g/ha (Setaria faberi (SETFA) [9]): 100%
pest or weed control at 1000 g/ha [10]: 100%
pest or weed control at 1000 g/ha [11]: 100%
pest or weed control at 1000 g/ha [12]: 80%
pest or weed control at 1000 g/ha [13]: 80%
pest or weed control at 1000 g/ha (Lolium perenne (LOLPE) [14]): 90%
pest or weed control at 1000 g/ha [16]: 100%
pest or weed control at 1000 g/ha [15]: 100%
pest or weed control at 1000 g/ha (Eleusine indica (ELEIN) [17]): 100%
